In article PMC9499506, “TNF-α and IL-1β Modulate Blood-Brain Barrier Permeability and Decrease Amyloid-β Peptide Efflux in a Human Blood-Brain Barrier Model” (International Journal of Molecular Sciences, 2022):

How the values were obtained:
BLECs = assay: Effect of cytokines on Aβ1–40Cy5 transcytosis quotient across BLECs; assay type: cell-based, human; conditions: cytokine 10 ng·mL^−1 basolateral, 24 h; then 30 min transport at 37 °C; compared to control
Procedure: As TNF-α and IL-1β modulated the protein expression levels of LRP1, BCRP and PICALM (Figure 4), we investigated the effect of these cytokines on the transport of Aβ peptide across the BBB. After 24 h of treatment with proinflammatory cytokines, the apical-to-basolateral (influx) and basolateral-to-apical (efflux) Aβ1–40Cy5 peptide transports across the BLECs were assessed in the presence of FITC-inulin. The Aβ1–40 peptide was used in all experiments, as it is the most abundant amyloid peptide found on cerebral blood vessels. FITC-inulin was used to determine the nonspecific transcytosis quotient (Figure 5A). Indeed, unlike Aβ peptide, FITC-inulin is not actively cleared at the BBB and acts as a reference marker of paracellular permeability, thus as previously reported.
(§1) Each condition was studied in triplicate.
After proinflammatory cytokine treatments, the influx (apical-to-basolateral) and the efflux (basolateral-to-apical) transport of Aβ1–40 peptides across BLECs were investigated as previously described. Briefly, for influx studies, inserts with BLECs were transferred to new 12-well plates containing 1.5 mL of RH–HSA 0.1% (the receiver solution) per well. In the insert, 0.5 mL of RH-HSA 0.1% supplemented with 10 nM Aβ1–40Cy5 peptide were added (the donor solution). For efflux studies, inserts with BLECs were transferred to new 12-well plates, this time containing 1.5 mL of RH-has 0.1% with 10 nM fluorescent Aβ1–40Cy5 (the donor solution) peptide, then 0.5 mL of RH-HSA 0.1% (the receiver solution) was added in the insert. […] The BBB integrity was determined by measuring the endothelial permeability of a radioactive integrity marker, ^14C-sucrose, using the same method of calculation as described in Section 4.4. […] At the end of the experiment, aliquots of the receiver and donor solutions were collected, and the fluorescence compounds (Aβ1–40Cy5 peptide and FITC-inulin) were quantified with a spectrofluorimeter (Synergy H1, Biotek, Colmar, France). The radioactivity of ^14C-saccharose was measured using a scintillation counter (Hidex 300 SL, Hidex, Turku, Finland). The apparent permeability coefficients (cm.sec^−1) of Aβ1–40Cy5 peptide and FITC-inulin were calculated as previously described. Once influx and efflux Papp were determined for each molecule, the specific transport of Aβ1–40Cy5 across the BLECs in influx and efflux directions were identified by calculating the transcytosis quotient of Aβ1–40Cy5 using the following formulas: “influx transcytosis quotient of Aβ1–40Cy5 = (influx Aβ1–40Cy5 Papp)/(influx FITC-inulin Papp)” or “efflux transcytosis quotient of Aβ1–40Cy5 = (efflux Aβ1–40Cy5 Papp)/(efflux FITC-inulin Papp)”. For each filter, the mass balance was determined as described in Section 4.4. […]

BLEC monolayer = assay: Effect of cytokines on BLEC monolayer permeability to lucifer yellow (PeLY); assay type: cell-based, human; conditions: for increase in transcellular passage of LY through BLEC monolayer compared to control / increase in paracellular passage of LY through BLEC monolayer compared to control: 10 ng·mL^−1, 24 h; for increase in transcellular passage of LY through BLEC monolayer compared to control: PeLY 37 °C minus PeLY 4 °C; for increase in paracellular passage of LY through BLEC monolayer compared to control: PeLY at 4 °C; for PeLY of BLECs after cytokine treatment: 10 ng·mL^−1 basolateral, 24 h, LY 50 µM apical-to-basolateral, RH buffer, 37 °C, 60 min, untreated 0.54 ± 0.03, mean ± SEM
Procedure: Next, we examined the effect of TNF-α and IL-1β on BBB permeability. The physical integrity of the BLECs was monitored by measuring the rate of passage of the small hydrophilic marker lucifer yellow (LY; ~400 Da) from the upper to the lower compartment to calculate the endothelial permeability coefficient of LY (PeLY).
To discriminate the impact of TNF-α and IL-1β on these different pathways and based on our previous PeLY results obtained at 37 °C informing on the global crossing of PeLY (paracellular and transcellular), a PeLY experiment was also performed at 4 °C. […] Thus, inhibition of the transcellular transport allows us to observe only the modification on the paracellular permeability. Then, the transcellular transport of LY, corresponding to the difference between global PeLY and PeLY at 4 °C, was determined.
as §1
The BLEC monolayer integrity was evaluated after each treatment using the method described by Dehouck and colleagues. The endothelial permeability coefficient (Pe) was evaluated regarding the apical-to-basolateral transport of the LY integrity marker used at a final concentration of 50 µM in RH buffer at 37 °C. Briefly, the inserts containing BLECs were transferred to a new 12-well plate containing warm RH buffer (corresponding to the basolateral compartment), and then a volume of 500 µL of warm RH with 50 µM of LY buffer was added to the apical compartment. The inserts containing the BLECs and RH buffer with 50 µM of LY were then transferred to a new well containing warm RH every 20 min for 1 hour. […] For each condition, coculturing was performed in triplicate. To determine the PeLY values for BLECs, the slope of the clearance curves (PS = permeability × surface area product; in µL·min^−1) corresponding to the volume cleared from the apical to the basolateral compartment (in µL) for 60 min was calculated for the filters with only Matrigel coating and for those with Matrigel coating and BLECs, denoted PSf and PSt, respectively. From these values, the PS values for BLECs (PSe) were determined according to the formula “[…]”. Then, the PeLY values for BLECs (in cm·min^−1) were obtained by the calculation “PeLY = PSe/S”, with PSe in cm^3·min^−1 and S being the filter surface area (= 1.12 cm^2). The same experiment was also performed at 4 °C to block the transcellular permeability of LY and to identify only the paracellular permeability of LY. Following these experiments, the transcellular permeability can be deduced, which corresponds to the PeLY values at 37 °C subtracted by those of PeLY at 4 °C. The mass balance (in %) was determined from the amount of LY in the apical and basolateral compartment at the end of the experiment divided by the total amount initially added in the apical compartment at time zero. To be taken into consideration for the Pe determination, the mass balance should be between 80% and 120%.

Row | Substance | apical-to-basolateral transcytosis quotient (specific influx) of Aβ1–40Cy5 peptide (BLECs) | reduction of basolateral-to-apical transcytosis quotient (specific efflux) of Aβ1–40Cy5 peptide (BLECs) | increase in transcellular passage of LY through BLEC monolayer compared to control (BLEC monolayer) | increase in paracellular passage of LY through BLEC monolayer compared to control (BLEC monolayer) | PeLY of BLECs after cytokine treatment (BLEC monolayer) | greater increase in paracellular passage of LY with TNF-α compared to IL-1β treatment (BLEC monolayer; both 10 ng·mL^−1, 24 h) | greater increase in transcellular passage of LY with IL-1β compared to TNF-α treatment (BLEC monolayer; both 10 ng·mL^−1, 24 h)
1 | tumor necrosis factor-α [TNF-α] | not modified | 26.9% | 40.1% | 175.2% | 1.00 ± 0.03 × 10^−3 cm·min^−1 | 133.9% | 
2 | interleukin-1β [IL-1β] | not modified | 25.9% | 94.2% | 41.3% | 0.95 ± 0.05 × 10^−3 cm·min^−1 |  | 54.2%
